These results are taken from patent US8586579B2, “Anellated pyridine compounds” (Hoffmann-La Roche Inc., priority 2010, dated 2013).

Where two headings read alike, the source gives them in different places.

One assay has as its target human 5-HT2A receptor (Homo sapiens (Human), UniProt P28223). As to the kind of experiment: Radioligand binding assay, [3H]-ketanserin, human 5-HT2A receptor. On the procedure: (§1) HEK293 EBNA cells were transiently transfected with expression plasmids encoding for the human D2 or D3 or for the human 5-HT2A receptor, respectively. The cells were harvested 48 h post-transfection, washed three times with cold PBS and stored at −80° C. prior to use. The pellet was suspended in cold 50 mM Tris-HCl buffer comprising 10 mM EDTA (pH 7.4) and was homogenized with a Polytron (Kinematica AG, Basel, Switzerland) for 20-30 sec at 12.000 rpm. After centrifugation at 48.000×g for 30 min at 4° C., the pellet was resuspended in cold 10 mM Tris-HCl buffer comprising 0.1 mM EDTA (pH 7.4), homogenized, and centrifuged as above. This pellet was further resuspended in a smaller volume of ice cold 10 mM Tris-HCl buffer comprising 0.1 mM EDTA (pH 7.4) and homogenized with a Polytron for 20-30 sec at 12.000 rpm. The protein content of this homogenate was determined with the Bio-Rad (Bradford) Protein Assay (Biorad Laboratories GmbH, München, Germany) according to the instructions of the manufacturer using gamma globulin as the standard. This homogenate was stored at −80° C. in aliquots and thawed immediately prior to use.
(§2) Aliquots of membrane preparations were thawed at RT, resuspended in assay buffer (D2, D3: 50 mM Tris-HCl, 120 mM NaCl, 5 mM MgCl2, 1 mM EDTA, 5 mM KCl, 1.5 mM CaCl2, pH=7.4; 5-HT2A: 50 mM Tris-HCl, 10 mM MgCl2, 1 mM EGTA, pH=7.4), homogenized with a Polytron for 20-30 sec at 12.000 rpm and adjusted to a final concentration of approximately 7.5 μg protein/well (D2, D3) and 15 μg protein/well (5-HT2A), respectively.
(§3) The binding affinity (Ki) of the compounds was determined using radioligand binding. Membranes were incubated in a total volume of 200 μl with a fixed concentration of radioligand (final concentration approximately 0.7 nM [^3H]-spiperone for D2, 0.5 nM [^3H]-spiperone for D3, and 1.1 nM [^3H]-ketanserin for 5-HT2A) and ten concentrations of test compound in ranging between 10 μM-0.1 nM for 1 h at RT. […] The nonspecific binding was determined with equally composed reaction mixtures in the presence of 10 μM unlabelled spiperone. Per well 45 μl of Microscint 40 (Perkin Elmer, Schwerzenbach, Switzerland) was added, plates for sealed, shaken for 20 min and counted for 3 min on a Topcount Microplate Scintillation Counter (Can berra Packard SA, Zürich, Switzerland) with quenching correction.
(§4) The CPM value for each duplicate of a concentration of competing compound was averaged (y1), then the % specific binding was calculated according to the equation (((y1−non-specific)/(total binding−non-specific))×100). Graphs were plotted with the % specific binding using XLfit, a curve fitting program that iteratively plots the data using Levenberg-Marquardt algorithm. The single site competition analysis equation used was y=A+((B−A)/(1+((x/C)D))), where y is the % specific binding, A is the minimum y, B is the maximum y, C is the IC50, x is the log 10 of the concentration of the competing compound and D is the slope of the curve (the Hill Coefficient). […] The affinity constant (K) was calculated using the Cheng-Prusoff equation Ki=(IC50/1+([L]/Kd), where [L] is the concentration of radioligand and Kd is the dissociation constant of the radioligand at the receptor as determined by the saturation isotherm.

The target of the next assay is human D3 receptor (Homo sapiens (Human), UniProt P35462). As to the kind of experiment: Radioligand binding assay, [3H]-spiperone, human D3 receptor. To be noted: membranes of HEK293 EBNA cells expressing human D3; 0.5 nM [3H]-spiperone. As to the method: as §1, §2, §3, §4
The next assay deals with human D2 receptor (Homo sapiens (Human), UniProt P14416). As to the kind of experiment: Radioligand binding assay, [3H]-spiperone, human D2 receptor. To be noted: membranes of HEK293 EBNA cells expressing human D2; 0.7 nM [3H]-spiperone. On the procedure:
as §1, §2, §3
as §4, with “algorithm.” for “algorithm. The single site competition analysis equation used was y=A+((B−A)/(1+((x/C)D))), where y is the % specific binding, A is the minimum y, B is the maximum y, C is the IC50, x is the log 10 of the concentration of the competing compound and D is the slope of the curve (the Hill Coefficient).”

[1] abbreviates: membranes of HEK293 EBNA cells expressing human 5-HT2A, 1.1 nM [3H]-ketanserin.

Sequence of human D3 receptor (P35462 whole entry): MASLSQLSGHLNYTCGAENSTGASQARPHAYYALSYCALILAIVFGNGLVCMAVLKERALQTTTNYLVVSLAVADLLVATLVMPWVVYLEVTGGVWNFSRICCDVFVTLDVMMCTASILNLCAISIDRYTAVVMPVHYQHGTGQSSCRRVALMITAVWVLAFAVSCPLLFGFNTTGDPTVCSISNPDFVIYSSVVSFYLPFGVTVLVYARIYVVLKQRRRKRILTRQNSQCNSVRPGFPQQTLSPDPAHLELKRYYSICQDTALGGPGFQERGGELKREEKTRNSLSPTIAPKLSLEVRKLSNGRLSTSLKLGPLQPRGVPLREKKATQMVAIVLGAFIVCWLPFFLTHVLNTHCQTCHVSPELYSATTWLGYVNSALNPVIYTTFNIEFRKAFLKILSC
Sequence of human 5-HT2A receptor (P28223 whole entry): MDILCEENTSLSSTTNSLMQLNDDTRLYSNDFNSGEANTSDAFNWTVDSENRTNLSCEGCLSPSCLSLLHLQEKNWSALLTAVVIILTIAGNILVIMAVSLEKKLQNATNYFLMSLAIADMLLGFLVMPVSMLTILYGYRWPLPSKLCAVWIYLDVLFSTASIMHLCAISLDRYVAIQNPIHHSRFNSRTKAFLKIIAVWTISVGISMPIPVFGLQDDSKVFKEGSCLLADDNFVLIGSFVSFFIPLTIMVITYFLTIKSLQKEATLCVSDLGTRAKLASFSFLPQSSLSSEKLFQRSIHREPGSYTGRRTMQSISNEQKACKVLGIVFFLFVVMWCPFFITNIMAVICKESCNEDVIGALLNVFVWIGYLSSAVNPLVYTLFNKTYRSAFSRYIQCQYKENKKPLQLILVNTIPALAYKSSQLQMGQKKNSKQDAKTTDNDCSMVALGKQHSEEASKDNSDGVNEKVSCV
Sequence of human D2 receptor (P14416 whole entry): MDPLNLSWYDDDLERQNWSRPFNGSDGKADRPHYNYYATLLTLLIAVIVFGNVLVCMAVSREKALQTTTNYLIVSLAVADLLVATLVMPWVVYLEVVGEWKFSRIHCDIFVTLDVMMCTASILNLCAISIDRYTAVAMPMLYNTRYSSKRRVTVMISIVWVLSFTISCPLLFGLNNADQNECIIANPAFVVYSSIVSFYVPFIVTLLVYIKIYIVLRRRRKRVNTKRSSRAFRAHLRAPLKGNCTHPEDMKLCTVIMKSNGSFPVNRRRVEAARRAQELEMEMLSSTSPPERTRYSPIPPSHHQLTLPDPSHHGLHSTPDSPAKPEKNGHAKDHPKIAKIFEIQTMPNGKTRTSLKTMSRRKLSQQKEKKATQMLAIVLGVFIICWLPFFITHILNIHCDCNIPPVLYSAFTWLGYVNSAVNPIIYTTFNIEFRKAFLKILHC

As usually defined, the Ki is a measure of affinity in units of concentration, obtained from inhibition or displacement. For the molecule `CO[C@@H]1CC[C@@H](CC(=O)N[C@H]2CC[C@H](CCN3CCN(c4nccc5occc45)CC3)CC2)C1` (racemic) [Example 2, N-{trans-4-[2-(4-Furo[3,2-c]pyridin-4-yl-piperazin-1-yl)-ethyl]-cyclohexyl}-2-(trans-3-methoxy-cyclopentyl)-acetamide], the values for the inhibitory constant (Ki) at human 5-HT2A receptor (setting [1]), at human D3 receptor and at human D2 receptor were 6.4 nM, 28.8 nM and 802 nM, respectively.
On the same counts, the results for `CO[C@@H]1CC[C@@H](CC(=O)N[C@H]2CC[C@H](CCN3CCN(c4nccc5sccc45)CC3)CC2)C1` (racemic) [Example 21, 2-(trans-3-Methoxy-cyclopentyl)-N-{trans-4-[2-(4-thieno[3,2-c]pyridin-4-yl-piperazin-1-yl)-ethyl]-cyclohexyl}-acetamide] are 3.7 nM, 3.6 nM and 271 nM.
As to `CC(=O)N[C@H]1CC[C@H](CCN2CCN(c3nccc4occc34)CC2)CC1` [Example 1, N-{trans-4-[2-(4-Furo[3,2-c]pyridin-4-yl-piperazin-1-yl)-ethyl]-cyclohexyl}-acetamide], the inhibition constant (Ki) on human 5-HT2A receptor worked out at 9.1 nM; on human D3 receptor, 18.3 nM; at human D2 receptor it was 486 nM.
Regarding `O=C(C[C@H]1CC[C@H](O)CC1)N[C@H]1CC[C@H](CCN2CCN(c3nccc4occc34)CC2)CC1` [Example 3, N-{trans-4-[2-(4-Furo[3,2-c]pyridin-4-yl-piperazin-1-yl)-ethyl]-cyclohexyl}-2-(trans-4-hydroxy-cyclohexyl)-acetamide], the inhibition constant Ki on human 5-HT2A receptor is 8.8 nM; at human D3 receptor, 54.6 nM; at human D2 receptor it was 1540 nM.
Turning to `CCC(=O)N[C@H]1CC[C@H](CCN2CCN(c3nccc4occc34)CC2)CC1` [Example 4, N-{trans-4-[2-(4-Furo[3,2-c]pyridin-4-yl-piperazin-1-yl)-ethyl]-cyclohexyl}-propionamide], the Ki on human 5-HT2A receptor is 6.5 nM; at human D3 receptor, 11.8 nM; on human D2 receptor, 780 nM.
Regarding `COCCC(=O)N[C@H]1CC[C@H](CCN2CCN(c3nccc4occc34)CC2)CC1` [Example 5, N-{trans-4-[2-(4-Furo[3,2-c]pyridin-4-yl-piperazin-1-yl)-ethyl]-cyclohexyl}-3-methoxy-propionamide], the Ki at human 5-HT2A receptor (setting [1]) stood at 8.1 nM; on human D3 receptor it was 24 nM; at human D2 receptor it was 1350 nM.
As to `O=C(CCO)N[C@H]1CC[C@H](CCN2CCN(c3nccc4occc34)CC2)CC1` [Example 6, N-{trans-4-[2-(4-Furo[3,2-c]pyridin-4-yl-piperazin-1-yl)-ethyl]-cyclohexyl}-3-hydroxy-propionamide], the Ki at human 5-HT2A receptor (setting [1]) was 10.3 nM; at human D3 receptor it was 19.9 nM; on human D2 receptor it was 959 nM.
On the same counts, the results for `O=C(CO)N[C@H]1CC[C@H](CCN2CCN(c3nccc4occc34)CC2)CC1` [Example 7, N-{trans-4-[2-(4-Furo[3,2-c]pyridin-4-yl-piperazin-1-yl)-ethyl]-cyclohexyl}-2-hydroxy-acetamide] are 5.6 nM, 43 nM and 1360 nM.
With `COCC(=O)N[C@H]1CC[C@H](CCN2CCN(c3nccc4occc34)CC2)CC1` [Example 8, N-{trans-4-[2-(4-Furo[3,2-c]pyridin-4-yl-piperazin-1-yl)-ethyl]-cyclohexyl}-2-methoxy-acetamide], the Ki stood at 4.4 nM on human 5-HT2A receptor (setting [1]), 77.2 nM on human D3 receptor and 1160 nM on human D2 receptor.
For `CO[C@H]1CC[C@H](CC(=O)N[C@H]2CC[C@H](CCN3CCN(c4nccc5occc45)CC3)CC2)CC1` [Example 9, N-{trans-4-[2-(4-Furo[3,2-c]pyridin-4-yl-piperazin-1-yl)-ethyl]-cyclohexyl}-2-(trans-4-methoxy-cyclohexyl)-acetamide], the inhibition constant (Ki) at human 5-HT2A receptor (setting [1]) was determined as 5.6 nM; at human D3 receptor, 32.7 nM; at human D2 receptor, 1460 nM.
